Test results as given in patent US9045474B2, “Compounds and compositions for mitigating tissue damage and lethality” (The Regents of the University of California, priority 2010, dated 2015).
“Also recorded” adds a separate entry of the source.

Tests used:
[1] = test system: RS112 cells; experiment: DEL plating assay for mitigation of radiation damage (treatment after 2000Gy); assay type: cell-based, Saccharomyces cerevisiae
Protocol: The mitigation protocol is based on the same DEL assay principle of recombination of the disrupted HIS3 gene that renders the cells capable of synthesizing its own histidine following radiation exposure. To establish mitigation properties of the compounds in question, the classical DEL protocol is modified as follows: first the RS112 cells are irradiated with 2000Gy and then the treatments are administered at 0 min, 10 min, 20 min, 30 min, and 60 min, incubated for 2 hrs, and plated on +13 and −His agar plates. The efficacy of the compounds is scored the same way as in the classical DEL protocol. Yel1 and Yel2 analogues that are efficacious in the HTS and classical DEL assay are analyzed for mitigation activity using this modified DEL protocol.
Six confirmed hits were also tested for radioprotection with the compounds being presented to irradiated cells at different time points following irradiation exposure. The DEL Plating Assay was used with a radiation sensitive Saccharomyces cerevisiae RS112 strain.
The general DEL Assay is described above. In this example, DEL assay is a genetic construct in the Saccharomyces cerevisiae RS112 strain where a plasmid with an internal fragment of the HIS3 gene has been integrated at the HIS3 locus, yielding an integrative disruption of the HIS3 gene. […] The construct reverts to HIS3+ by recombination between the two his3 deletion alleles which is, in 99% of the cases, associated with the deletion of the entire 6 kilobasepairs of DNA comprising the integrated plasmid. DEL events are inducible with a variety of DNA-assaulting agents: radiation, smoking, UV exposure, 92% of the known carcinogens, etc.
RS112 cells irradiated with 2000Gy show an induction of the deletion frequencies (DEL events) and roughly a 90% killing.

[2] = test system: C3H mice; experiment: Toxicity experiments in C3H mice; assay type: in vivo, mouse; conditions: 150 mg/kg, 75 mg/kg and 5 mg/kg; 120 days following the injections
Protocol: Having seen no adverse effects of the chemicals alone on mammalian cell models we performed a preliminary toxicity study on a group of C3H mice. […] In a pilot reproductive toxicity study, 12, week old female mice were paired up with 6 week old male mice and checked daily for the presence of a characteristic “plug” in the female vaginal canal as an indication of mating. As soon as the mating has occurred, males were removed and the females were treated weekly with 75 mg/kg s.c. throughout the gestation period and until the pups were weaned off (8 week treatment course). After weaning, treatment of the offspring was initiated at the same 75 mg/kg s.c. weekly dose. Controls were injected s.c. on the same schedule with the carrier (1N saline). Five treated and five control females gave birth to the same average number of pups per litter (n=6) without any detectable toxicities to the other. 3 litters of each treated and control groups survived to continue the study. No pathologies, toxicities nor adverse effects were observed. There are no developmental or teratogenic deficiencies in mice, average weights (21 g) are the same in both groups also.

[3] = test system: DBA/2 Mice; experiment: Radiation-induced leukemia model; assay type: in vivo, mouse
Protocol: DBA/2 Mice (15/group) were irradiated with ^60Co (3.5 Gy, 0.6 Gy/min) to induce leukemia. One group received no drug, another group of mice were injected s.c. with Yel001 or Yel002 (25 mg/kg) with 5 injections for 5 days. Leukemogenesis was monitored for 90 days. Blood was drawn at days −1, 21, 42, and 63 to monitor for leukemia every 21 days to monitor for leukemia development using WBCs and differentials. This leukemia model takes advantage of non-targeted radiation effects, which are important to the carcinogenic process. This model has a shorter latency period to gamma radiation-induced leukemia (latency to 50% leukemic population: 107 days) than other murine leukemia models such as CBA mouse (399 days: 50% leukemic population). DBA/2 mice were irradiated with 3.5 Gy (^60Co 0.60 Gy/min) and then injected intravenously with (5×10^6) FDC-P1 cells. Animals were then monitored 5×/weekly for 10 weeks-post-injection and then daily after 10 weeks-post-injection until leukemia development and/or euthanasia. After the animal has been determined to be leukemic using hematological parameters, it is euthanized and a necropsy is conducted to definitively determine a conclusive diagnosis of leukemia. Control animals not developing leukemia are assessed at 270 days post experiment initiation. At that time they are euthanized and necropsied.

[4] = test system: C3H mice; experiment: Recovery of the hematopoietic system after 6 Gy irradiation; assay type: in vivo, mouse
Text: WBC-total white blood cells (K/uL), NE—neutrophils (K/uL), and LY—lymphocytes (K/uL). With 1—tail, Student's t-Student's t-test, WBC and NE, along with monocytes, eosinophils, and basophils (data not shown) are p<0.05.
RBC— red blood cells (M/uL), HB-hemoglobin (g/dL), and HCT-hematocrit (%).

[5] = test system: yeast DEL tester strain RS112; experiment: DEL assay, UV radiation-induced damage; assay type: cell-based, Saccharomyces cerevisiae
Protocol: DEL tester strain was irradiated with 4000 J/m^2 in the ultraviolet range and treated with Yel001 or Yel002 at 60 minutes at the concentration of 15 uM.

[6] = test system: OMM lymphocytes; experiment: γH2AX assay, cigarette smoke extract induced double strand breaks; assay type: cell-based, mouse; conditions: 3 puff/mL cigarette smoke extract, 6 and 24 hrs, Ogg−/− Myh−/− mice
Protocol: Whole peripheral blood lymphocytes were taken from WT, and OMM double knockout mice (mice deficient in DNA repair pathways observed in smoking-induced lung cancer) and were administered 3 puff/mL of Cigarette smoke extract (CSE) alone or co-incubation of 3 puff/mL Cigarette smoke extract and 10 uM Yel 002 for 3, 6, and 24 hrs and the amount of double stranded breaks were assessed via γH2AX assay. […] Statistical significance was assessed via a 1 way ANOVA test with Tukey's post-hoc analysis. […] Statistical significance was assessed via a 1 way ANOVA test with Tukey's post-hoc analysis. N=3 in each group.

[7] = test system: DEL RS112 tester strain; experiment: DEL assay, damage by chemical carcinogen MMS; assay type: cell-based, Saccharomyces cerevisiae; conditions: 15 uM, 1 hrs after exposure to MMS
Text: A DEL assay, described above, is used for assessing mitigation of damage induced by chemical carcinogens by compounds of invention.
Tests in this example show administration of Yel001 and Yel002 confers reduction against chemical carcinogen Methyl methanesulfonate (MMS) in vitro.
Reduction of cytotoxicity and genotoxicity with Yel002 is p<0.007 and p<0.04 restively; p-values for Yel001 are 0.0007 (genotoxicity) and 0.1 for cytotoxicity.

[8] = test system: primary keratinocytes; experiment: Proliferation of primary keratinocytes after 5Gy irradiation; assay type: cell-based, human; conditions: 5 uM, cultured 11 days
Protocol: After the IR the cells were treated with Yel002 and cultured for 11 days.

COc1ccc2cc(-c3nc4ccc(C)cn4c3NCc3ccco3)c(=O)[nH]c2c1 [Yel002]
reduction of DEL events (gene reversion frequency) ([1]; compound added 0-60 min after 2000Gy, p<0.05): decreased DEL frequencies; also recorded: significant reduction of genetic instability
mitigation of radiation cytotoxicity (survival) ([1]; compound added at time points after 2000Gy, significant only at 60 min): increased survival fractions; also recorded: mitigation of radiation cytotoxicity has been observed
adverse physiological or behavioral effects [2]: did not show any adverse physiological nor behavioral adverse effects
first development of leukemia ([3]; 3.5 Gy, 25 mg/kg s.c., no drug also within 42 days): 42 days
mice exhibiting leukemia ([3]; Day 94, 3.5 Gy, 25 mg/kg s.c. 5 injections, irradiated controls 30%): 10%
leukemia frequency ([3]; Day 270, irradiated population 90%): 40%
latency to leukemia development ([3]; FIG. 17): increased latency to leukemia development
frequency of radiation induced and/or spontaneous cancer ([3]; FIG. 18): effective for reducing the frequency of radiation induced and spontaneous cancer
recovery of total white blood cells, red blood cells, and platelets ([4]; 75 mg/kg s.c. 5×24): increases the recovery
recovery of the hematopoietic system ([4]; 75 mg/kg s.c. 5×24 hr schedule): promote the recovery of the hematopoietic system
UV genotoxicity and cytotoxicity ([5]; 15 uM, P<0.05): reduces cell death and genotoxicity; also recorded: significantly reduces genotoxicity and cytotoxicity
survival ([5]; 4000 J/m^2 UV, 15 uM at 60 minutes, untreated 0.64%): 1.84%
double strand breaks / average γH2AX per cell [6]: reduces the number of DNA double strand breaks
double strand breaks / average γH2AX per cell ([6]; listed as YEL 002): significantly reduces cigarette smoke induced double strand breaks; also recorded: significantly decreases the amount of average γH2AX per cell
genotoxicity and cytotoxicity by MMS [7]: reduction in genotoxicity and cytotoxicity; also recorded: can be mitigated
proliferation as compared to controls [8]: increased proliferation
